Measurements from PMC8983459 (Molecular cancer therapeutics, 2022).

How the values were obtained:
[1] = tested on: PSA expression in LN95 cells (AR activity); test: PSA ELISA of conditioned medium, LN95 cells; assay type: cell-based, human
PC-3 cells = test: Cell proliferation assay, PC-3; assay type: cell-based, human; details: PC-3, 10 μM, repeat experiment (Supplemental Fig. 2)
22Rv1 xenograft tumor = 22Rv1 xenograft tumor study in castrated mice; details: 10 mg/kg i.p. every day; (+)-JJ-74-138 compared to enzalutamide p < 0.05
[2] = tested on: PSA expression in 22Rv1 cells (AR activity); test: PSA ELISA of conditioned medium, 22Rv1 cells; assay type: cell-based, human
DU145 cells = test: Cell proliferation assay, DU145; assay type: cell-based, human; details: DU145, 10 μM, repeat experiment (Supplemental Fig. 2)
[3] = tested on: PSA expression in C4-2 cells (AR activity); test: PSA ELISA of conditioned medium, C4-2 cells; assay type: cell-based, human; details: C4-2, 48 h
AR = test: Western blot with nucleocytoplasmic fractionation, AR level; assay type: cell-based, human; details: 10 nM, 20 h, C4-2, LN95, and 22Rv1
22Rv1 tumors = details: cited from earlier work
AR nuclear localization = details: cited from earlier work
[4] = LN95, 48 h, DHT 0-1000 nM with 10 μM compound
[5] = 22Rv1, 48 h, DHT 0-1000 nM with 10 μM compound
[6] = DHT 0-1000 nM with 10 μM (+)-JJ-74-138 or 1 or 10 μM enzalutamide

CNC(=O)c1ccc(N2C(=S)N(c3ccc(C#N)c(C(F)(F)F)c3)C(=O)C2(C)C)cc1F [enzalutamide]
inhibition at 10 µM ([1]; Homo sapiens, 48 h, read-out: inhibition of PSA levels): ~20%
DHT-stimulated PSA expression ([1]; LN95, 10 μM, with DHT (Fig. 3A)): effectively inhibit DHT-stimulated PSA expression
increase of EC50 of DHT induction of PSA [1, 4]: ~ 10 fold
maximal PSA induction by high DHT dosages [1, 4]: alleviated by high doses of DHT
cell growth (PC-3 cells): minimal inhibitory effect
survival (Kaplan-Meier, ad hoc analysis) (22Rv1 xenograft tumor): did not differ from the vehicle control
DHT-stimulated PSA expression ([2]; 22Rv1, 10 μM, with DHT (Fig. 3A)): effectively inhibit DHT-stimulated PSA expression
increase of EC50 of DHT induction of PSA [2, 5]: ~ 10 fold
maximal PSA induction by high DHT dosages [2, 5]: alleviated by high doses of DHT
cell growth (DU145 cells): minimal inhibitory effect
increase of EC50 of DHT induction of PSA [3, 6]: ~ 10 fold
maximal PSA induction by high DHT dosages [3, 6]: alleviated by high doses of DHT
inhibition at 10 µM ([3]; Homo sapiens, read-out: inhibition of PSA levels): ~70%

C[C@]1(O)CC[C@H]2[C@@H]3CCC4=CC(=O)CCC4=C3C=C[C@@]21C [R1881]
amount of total AR and nuclear AR level (AR): increased the amount of total AR, particularly the nuclear AR level

CC/C(=C(\c1ccccc1)c1ccc(OCCN(C)C)cc1)c1ccccc1 [tamoxifen]
PSA expression ([1]; LN95 cells (Supplemental Fig. 3)): did not affect PSA expression

CC(C)(c1ccc(OCC(O)CO)cc1)c1ccc(OCC(O)CCl)cc1 (stereo not drawn) [EPI-001]
sensitivity of 22Rv1 tumors (22Rv1 tumors): resistant

O=C(CSCc1cnoc1)N1CCN(c2ccccc2)CC1 [IMTPPE, 2-[(isoxazol-4-ylmethyl)thio]-1-(4-phenylpiperazin-1-yl)ethanone]
androgen-independent AR nuclear localization (AR nuclear localization): inhibited androgen-independent AR nuclear localization
